This is an account of results in patent publication US8012978B2, “Prodrugs of CC-A1065 analogs” (ImmunoGen, Inc., priority 2006, dated 2011).

For one series, the system named is mice. To be noted: single intravenous dose of 12.5 μg/kg; cited from earlier work.
The conditions of series [1]: cited from earlier work.
The subject of a further series is HL60 cells. The experiment in a line: In vitro cytotoxicity towards HL60 cells. The class given is cell-based, human. To be noted: HL60/s cells, 5-day exposure; read-out: IC50 Concentration. How it is done:
(§1) Sulfide or disulfide-containing and mercapto-containing prodrugs of CC-1065 analogs of the present invention can be evaluated for their ability to suppress proliferation of various unwanted cell lines in vitro under incubation conditions. Cell lines such as, for example, Ramos cell line and HL60 can easily be used for the assessment of the cytotoxicity of these compounds. Cells to be evaluated can be exposed to the compounds for 24 hours and the surviving fractions of cells measured in direct assays by known methods. IC50 values can then be calculated from the results of the assays.
Cytotoxicity of the prodrugs of the present invention and their conjugates with cell binding agents can be measured after cleavage of the protecting group and conversion into the active drug. Cytotoxicity to non-adherent cell lines such as Namalwa and HL60 can be measured by back-extrapolation of cell proliferation curves as described in Goldmacher et al, 135 J. Immunol. 3648-3651 (1985). Cytotoxicity of these compounds to adherent cell lines such as A-375 and SCaBER can be determined by clonogenic assays as described in Goldmacher et al, 102 J. Cell Biol. 1312-1319 (1986). […]
• Cytotoxicity of DC07-SMe (FIG. 2) and DC1-SMe (FIG. 1D) towards Ramos and HL60/S cells has been measured in vitro with 5-day exposure. […]
• Cytotoxicity of DC1-SPy and DC07-SPy towards Ramos and HL60 cells has been measured. […]

For the next series, the system named is Ramos cells. Nature of the series: In vitro cytotoxicity towards Ramos cells. The class given is cell-based, human. The procedure:
as §1
(§2) Cytotoxicity of the prodrugs of the present invention and their conjugates with cell binding agents can be measured after cleavage of the protecting group and conversion into the active drug. Cytotoxicity to non-adherent cell lines such as Namalwa and HL60 can be measured by back-extrapolation of cell proliferation curves as described in Goldmacher et al, 135 J. Immunol. 3648-3651 (1985). Cytotoxicity of these compounds to adherent cell lines such as A-375 and SCaBER can be determined by clonogenic assays as described in Goldmacher et al, 102 J. Cell Biol. 1312-1319 (1986).
(§3) The human cancer cell lines HL60, Namalwa, A-375, COLO205 and Ramos were obtained from the American Type Culture Collection (ATCC). Kara is a murine tumor cell line that has been stably transfected with the human CD33 antigen.
• Cytotoxicity of DC07-SMe (FIG. 2) and DC1-SMe (FIG. 1D) towards Ramos and HL60/S cells has been measured in vitro with 5-day exposure. IC50 are shown below.
• Cytotoxicity of DC1-SPy and DC07-SPy towards Ramos and HL60 cells has been measured. Results are given in FIG. 7 and IC50 are shown below.
(§4) • Cytotoxicity of DC08-SSPy towards Namalwa and Ramos cells has been measured. Results are given in FIG. 8 and IC50 are shown below.
• Cytotoxicity of MY9-6-DC07 (disulfide linked) towards antigen positive Kara and antigen negative Ramos cells has been measured. Results are given in FIG. 9 and IC50 are shown below.

Series [2] in a line: Conversion of prodrug by incubation in mice serum. The class given is in vitro ADME. An excerpt:
(§5) The synthesis of prodrugs DC07 (7a), DC08 (8a) and DC107 (FIG. 4) is described herein. DC07 and DC08 as well as DC107 are derived from the parent drug DC1 and DC101, while DC09 (9a) can be prepared from the pegylated parent drug DC5 which was described in U.S. Pat. No. 6,756,397 B2 (FIG. 3). […] These drugs also have enhanced water solubility as compared with DC1.

Series [3] is described as follows: Stability in aqueous solutions. The class given is physicochemical. Particulars: pH 5.5 or below.
Source text: as §5

The nature of series [4]: Conversion of prodrug by incubation in serum or plasma. The class given is in vitro ADME.
Source text: as §5

A further series has as its system Namalwa cells. Nature of the series: In vitro cytotoxicity towards Namalwa cells. Particulars: Namalwa cells (FIG. 8). The class given is cell-based, human.
Source text: as §2, §3, §4

In another series the test system is COLO 205 cells. Nature of the series: In vitro cytotoxicity towards antigen positive COLO 205 cells. The class given is cell-based, human.
Source text: as §2, §3
(§6) • Cytotoxicity of huC242-DC07 (thioether linked) towards antigen positive COLO 205 and antigen negative A-375 cells has been measured. Results are given in FIG. 10 and IC50 are shown below.

Another series relates to A-375 cells. The experiment in a line: In vitro cytotoxicity towards antigen negative A-375 cells. The class given is cell-based, human.
Source text: as §2, §3, §6

Where [5] appears, read: Ramos cells, 5-day exposure, read-out: IC50 Concentration.

Where two headings read alike, the source gives them in different places.

`COc1c(O)c2c(c3cc(C(=O)N4CCc5c4c(O)c(OC)c4[nH]c(C(=O)N6CC7CC78C6=CC(=O)c6[nH]cc(C)c68)cc54)[nH]c13)CCN2C(N)=O` (stereo not shown) [CC-1065]: the toxicity result in the series with mice is recorded as “delayed hepatotoxicity leading to mortality on day 50”. The “potency in vitro relative to doxorubicin, methotrexate and vincristine” value in [1] is given as “about 1000 fold”.
In the case of `CSSCCC(=O)Nc1ccc2[nH]c(C(=O)Nc3ccc4[nH]c(C(=O)N5C[C@@H](CCl)c6c5cc(O)c5ccccc65)cc4c3)cc2c1` [DC1-SMe, 1-[S]-(chloromethyl)-5-hydroxy-3-{{5-[5-(3-methyldithiopropionyl)indol-2-yl-carbonylamino]indole-2-yl}carbonyl}-1,2-dihydro-3H-benz[e]indole, reference compound], the IC50 was determined as 0.036 nM with HL60 cells and 0.062 nM in the series on Ramos cells (setting [5]).
In the case of `CSSCCC(=O)Nc1ccc2[nH]c(C(=O)Nc3ccc4[nH]c(C(=O)N5C[C@@H](CCl)c6c5cc(OC(=O)Nc5cccc(S(=O)(=O)O)c5)c5ccccc65)cc4c3)cc2c1` [DC07-SMe], the IC50 was found to be 0.05 nM in the series on HL60 cells and 0.12 nM with Ramos cells (setting [5]). Further, the “conversion into the parent drug” value in series [2] is listed as “converts it into the parent drug DC1SMe”.
As for `O=C(CCS)Nc1ccc2[nH]c(C(=O)Nc3ccc4[nH]c(C(=O)N5C[C@@H](CCl)c6c5cc(OC(=O)Nc5cccc(S(=O)(=O)O)c5)c5ccccc65)cc4c3)cc2c1` [DC07], in series [3], the “stability in aqueous solutions” value is listed as “extremely stable”. Also, the “conversion into the parent drug” value in series [4] is reported as “can be converted into the parent drug DC1”.
Take “(S)—N-[2-{(1-chloromethyl)-1,2-dihydro-5-[(3-hydroxysulfonylmethyl-phenyl)aminocarbonyloxy]-3H-benz(e)indol-3-yl}carbonyl]-H-indol-5-yl]-5-{[3-(2-pyridyldithio)-propanoyl]-amino}-1H-indole-2-carboxamide [DC08-SSPy]”: the IC50 was 0.42 nM with Namalwa cells and 0.42 nM in the series with Ramos cells (Ramos cells (FIG. 8), read-out: IC50).

B1: huC242-DC07: huC242-DC07 (thioether linked) conjugate (conjugate, chains of the INN, looked up)
VH: QVQLVQSGAEVKKPGETVKISCKASDYTFTYYGMNWVKQAPGQGLKWMGWIDTTTGEPTYAQKFQGRIAFSLETSASTAYLQIKSLKSEDTATYFCARRGPYNWYFDVWGQGTTVTVSS
VL: DIVMTQSPLSVPVTPGEPVSISCRSSKSLLHSNGNTYLYWFLQRPGQSPQLLIYRMSNLVSGVPDRFSGSGSGTAFTLRISRVEAEDVGVYYCLQHLEYPFTFGPGTKLELK
modifications: DC07 drug, thioether linked
notes: huC242-DC07 (thioether linked) conjugate
As to B1, the IC50 with COLO 205 cells came to 0.035 nM; with A-375 cells, 1.3 nM.
